Laboratory results reported in patent publication US9169252B2 (BRISTOL-MYERS SQUIBB COMPANY, priority 2014, dated 2015).
Read-outs that look alike come from different tables or passages of the source.

How the values were obtained:
IRAK4 = IRAK4 (Homo sapiens (Human), UniProt Q9NWZ3); assay: IRAK4 Inhibition Assay; assay type: biochemical; conditions: ATP 500 μM, read-out: IRAK4 IC50
How it was run: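 IRAK4 combined with fluorescent substrate and compounds, reacted 60 min at room temperature, stopped with 35 mM EDTA. Substrate and phosphorylated product separated electrophoretically on a Caliper LabChip 3000 mobility-shift reader.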

[1] = system: TLR2 induced IL-6 in peripheral blood mononuclear cells (PBMCs); assay: PBMC TLR2 Induced IL-6 Assay; assay type: cell-based, human; conditions: IL-6 by ELISA; for IC50: read-out: Cell IC50; for EC50: read-out: Cell EC50
How it was run: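 Lipoteichoic acid at 10 µg/ml served as TLR2 stimulus for 5 hours, following a 30-minute compound pretreatment at 37° C. Cells were Ficoll-isolated human PBMCs, 250000 cells/well, cultured in RPMI plus 10% heat-inactivated FCS.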

[2] = Homo sapiens, PBMC, PBMC TLR2 Induced IL-6 Assay, lipoteichoic acid stimulation
[3] = Homo sapiens, PBMC, human PBMCs, lipoteichoic acid stimulated
[4] = PBMC TLR2 Induced IL-6 Assay, lipoteichoic acid stimulation

IRAK4, sequence (Q9NWZ3 whole entry, species assumed): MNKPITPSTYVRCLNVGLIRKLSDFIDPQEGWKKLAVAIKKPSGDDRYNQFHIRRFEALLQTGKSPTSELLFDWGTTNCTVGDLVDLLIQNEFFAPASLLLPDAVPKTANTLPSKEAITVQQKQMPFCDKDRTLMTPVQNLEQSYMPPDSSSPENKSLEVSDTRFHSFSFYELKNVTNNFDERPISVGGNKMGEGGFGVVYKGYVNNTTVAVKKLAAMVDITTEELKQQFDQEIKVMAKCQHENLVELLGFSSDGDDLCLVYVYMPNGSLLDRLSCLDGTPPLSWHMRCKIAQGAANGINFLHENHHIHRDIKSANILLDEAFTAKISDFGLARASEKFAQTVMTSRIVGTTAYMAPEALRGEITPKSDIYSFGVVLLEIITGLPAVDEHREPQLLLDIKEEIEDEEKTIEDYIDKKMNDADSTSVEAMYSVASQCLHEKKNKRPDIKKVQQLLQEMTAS

Row | Structure (SMILES) | IC50 (IRAK4; IRAK4 Inhibition Assay) | IC50 (IRAK4; IRAK4 0.6 nM) | EC50 [1, 2] | also measured
1 | COc1ccc(CCNC(=O)c2cnc(-n3ncc4cc(C#N)cnc43)cc2NC(C)C)cc1 [Example 261] | 3.4 nM |  |  | IC50 [1, 2]: 154 nM
2 | CC(C)(O)CCNC(=O)c1cnc(-n2ncc3cc(C#N)cnc32)cc1NC1COC1 [Example 553] |  | 11.2 nM |  | IC50 [1, 3]: 298 nM
3 | CC(C)Nc1cc(-n2ncc3cc(C#N)cnc32)ncc1C(=O)NCC(F)C1(O)COC1 (stereo not drawn) [Example 249] | 6.1 nM |  |  | IC50 [1, 4]: 355 nM
4 | CC(C)(O)[C@H](F)CNC(=O)c1cnc(-n2ncc3cc(C#N)cnc32)cc1NCC1(F)CCC1 [Example 581] |  | 8.4 nM |  | IC50 [1, 3]: 227 nM
5 | CC(C)C(O)CNc1cc(-n2ncc3cc(C#N)cnc32)ncc1C(=O)NC[C@@H](F)C(C)(C)O (stereo partly drawn) [Example 597] |  | 15.6 nM |  | IC50 [1, 3]: 307 nM
6 | CC(C)(O)CNc1cc(-n2ccc3cc(Cl)cnc32)ncc1C(=O)NC[C@@H](F)C(C)(C)O [Example 35, (R)-6-(5-chloro-1H-pyrrolo[2,3-b]pyridin-1-yl)-N-(2-fluoro-3-hydroxy-3-methylbutyl)-4-((2-hydroxy-2-methylpropyl)amino)nicotinamide] | 2.1 nM |  | 117 nM | IC50 [1, 2]: 452 nM
7 | CC(C)(O)[C@H](F)CNC(=O)c1cnc(-n2ccc3cc(C#N)cnc32)cc1Nc1cccc(-c2ncc[nH]2)c1 [Example 431] |  | 2.1 nM |  | EC50 [1, 3]: 106 nM
8 | CCNc1cc(-n2ncc3cc(C#N)cnc32)ncc1C(=O)NC[C@@H](F)C(C)(C)O [Example 138, (R)-6-(5-cyano-1H-pyrazolo[3,4-b]pyridin-1-yl)-4-(ethylamino)-N-(2-fluoro-3-hydroxy-3-methylbutyl)nicotinamide] | 6.4 nM |  | 152 nM | 
9 | CC(C)(O)[C@H](F)CNC(=O)c1cnc(-n2ccc3cc(C#N)cnc32)cc1N[C@@H]1COC[C@H]1O [Example 456] |  | 4.8 nM |  | EC50 ([1]; human PBMCs, lipoteichoic acid stimulated): 241 nM
10 | CC(C)Nc1cc(-n2ncc3cc(C#N)cnc32)ncc1C(=O)NCCc1cccnc1 [Example 276] | 4.7 nM |  |  | IC50 [1, 2]: 380 nM
11 | CC(C)Nc1cc(-n2ccc3cc(C#N)cnc32)ncc1C(=O)NC[C@@H](F)C(C)(C)O [Example 75, (R)-6-(5-cyano-1H-pyrrolo[2,3-b]pyridin-1-yl)-N-(2-fluoro-3-hydroxy-3-methylbutyl)-4-(isopropylamino)nicotinamide] | 7.6 nM |  |  | IC50 [1, 2]: 22 nM
12 | CC(C)Nc1cc(-n2ncc3cnc(N)nc32)ncc1C(=O)NC[C@@H](F)C(C)(C)O [Example 579] |  | 3.9 nM |  | IC50 [1, 3]: 269 nM
13 | CNC(=O)[C@H]1CC[C@H](NC(=O)c2cnc(-n3ncc4cc(C#N)cnc43)cc2NC2CC2)CC1 [Example 140, 6-(5-cyano-1H-pyrazolo[3,4-b]pyridin-1-yl)-4-(cyclopropylamino)-N-((trans)-4-(methylcarbamoyl)cyclohexyl)nicotinamide] | 8.3 nM |  | 226 nM | 
14 | C[C@@H](F)CNc1cc(-n2ncc3cc(C#N)cnc32)ncc1C(=O)NC[C@@H](F)C(C)(C)O [Example 582] |  | 3.8 nM |  | IC50 [1, 3]: 109 nM
15 | CC(C)Nc1cc(-n2ccc3cc(C#N)cnc32)ncc1C(=O)NCCCOC(C)(C)C [Example 417] |  | 5.5 nM |  | EC50 [1, 3]: 171 nM
16 | CC(F)(F)Cn1cc(Nc2cc(-n3ncc4cc(C#N)cnc43)ncc2C(=O)NC[C@@H](F)C(C)(C)O)cn1 [Example 365] | 1.7 nM |  |  | IC50 [1, 2]: 66 nM
17 | CCCNC(=O)c1cnc(-n2ncc3cc(C#N)cnc32)cc1Nc1cnn(CC(F)F)c1 [Example 389] | 4 nM |  |  | IC50 [1, 2]: 241 nM
18 | CC(C)(O)[C@H](F)CNC(=O)c1cnc(-n2cnc3cc(Cl)cnc32)cc1Nc1cnn(CCCF)c1 [Example 370] | 2.6 nM |  |  | IC50 [1, 2]: 84 nM
19 | CC(C)(O)[C@H](F)CNC(=O)c1cnc(-n2cnc3cc(Cl)cnc32)cc1Nc1cnn(C(F)F)c1 [Example 400] |  | 7.8 nM |  | IC50 [1, 3]: 156 nM

Row | Structure (SMILES) | IC50 (IRAK4; IRAK4 Inhibition Assay) | IC50 (IRAK4; IRAK4 0.6 nM) | EC50 [1, 2] | also measured
20 | CC(C)Nc1cc(-n2ccc3cc(C#N)cnc32)ncc1C(=O)NC[C@@H](F)C(C)NC(C)C (single isomer, unassigned) [Example 129] | 4.1 nM |  |  | EC50 [1, 4]: 451 nM
21 | CC(C)(O)[C@H](F)CNC(=O)c1cnc(-n2ncc3cc(C#N)cnc32)cc1Nc1cccc(C#N)c1F [Example 528] |  | 3.3 nM |  | EC50 [1, 3]: 91 nM; IC50 [1, 3]: 326 nM
22 | CC(C)(O)[C@H](F)CNC(=O)c1cnc(-n2ccc3cc(C#N)cnc32)cc1Nc1ccc2[nH]ncc2c1 [Example 438] |  | 2.5 nM |  | EC50 [1, 3]: 33 nM
23 | CNC(=O)[C@H]1CC[C@H](NC(=O)c2cnc(-n3ccc4cc(C#N)cnc43)cc2NC(C)C)CC1 [Example 80, 6-(5-cyano-1H-pyrrolo[2,3-b]pyridin-1-yl)-4-(isopropylamino)-N-((trans)-4-(methylcarbamoyl)cyclohexyl)nicotinamide] | 1.1 nM |  | 167 nM | IC50 [1, 2]: 79 nM
24 | CC(C)Nc1cc(N2CCc3cc(C#N)cnc32)ncc1C(=O)NC[C@@H](F)C(C)(C)O [Example 567] |  | 9.9 nM |  | EC50 [1, 3]: 164 nM; IC50 [1, 3]: 264 nM
25 | CC(C)Nc1cc(-n2ccc3cc(C#N)cnc32)ncc1C(=O)N[C@H]1CC[C@](O)(c2nccn2C)CC1 [Example 176, 6-(5-cyano-1H-pyrrolo[2,3-b]pyridin-1-yl)-N-((1 s,4s)-4-hydroxy-4-(1-methyl-1H-imidazol-2-yl)cyclohexyl)-4-(isopropylamino) nicotinamide] | 6.4 nM |  | 476 nM | 
26 | CC(C)Nc1cc(-n2ncc3cc(C#N)cnc32)ncc1C(=O)Nc1ccc(OCCN(C)C)cn1 [Example 225] | 9.2 nM |  | 98 nM | 
27 | CC(C)Nc1cc(-n2cnc3cnc(NCCO)nc32)ncc1C(=O)NC[C@@H](F)C(C)(C)O [Example 172, (R)—N-(2-Fluoro-3-hydroxy-3-methylbutyl)-6-(2-((2-hydroxyethyl)amino)-9H-purin-9-yl)-4-(isopropylamino)nicotinamide] | 2.5 nM |  |  | IC50 [1, 2]: 10000 nM
28 | CC(C)Nc1cc(-n2ccc3cc(Cl)ccc32)ncc1C(=O)NC[C@@H](F)C(C)(C)O [Example 37, (R)-6-(5-chloro-1H-indol-1-yl)-N-(2-fluoro-3-hydroxy-3-methylbutyl)-4-(isopropylamino)nicotinamide] | 11.8 nM |  | 1230 nM | 
29 | CC(C)CCNc1cc(-n2ccc3cc(C#N)cnc32)ncc1C(=O)NC[C@@H](F)C(C)(C)O [Example 19, (R)-6-(5-cyano-1H-pyrrolo[2,3-b]pyridin-1-yl)-N-(2-fluoro-3-hydroxy-3-methylbutyl)-4-(isopentylamino) nicotinamide] | 3.2 nM |  | 252 nM | 
30 | CC(C)(O)[C@H](F)CNC(=O)c1cnc(-n2ncc3cc(C#N)cnc32)cc1NC1CC(F)(F)C1 [Example 644] |  | 4.3 nM |  | IC50 [1, 3]: 89 nM
31 | CC(C)Nc1cc(-n2ncc3cc(C#N)cnc32)ncc1C(=O)N[C@H]1CC[C@H](C(C)(C)O)CC1 [Example 148, 6-(5-cyano-1H-pyrazolo[3,4-b]pyridin-1-yl)-N-((trans)-4-(2-hydroxypropan-2-yl)cyclohexyl)-4-(isopropylamino)nicotinamide] | 1.4 nM |  | 64 nM | 
32 | CCNC(=O)CCNC(=O)c1cnc(-n2ncc3cc(C#N)cnc32)cc1NC(C)C [Example 212] | 12.4 nM |  | 192 nM | 
33 | CC(C)Nc1cc(-n2ccc3cc(C#N)cnc32)ncc1C(=O)N[C@H]1CC[C@](O)(c2ccncc2)CC1 [Example 179, 6-(5-cyano-1H-pyrrolo[2,3-b]pyridin-1-yl)-N-((1 s,4s)-4-hydroxy-4-(pyridin-4-yl)cyclohexyl)-4-(isopropylamino)nicotinamide] | 2.8 nM |  | 135 nM | 
34 | CC(C)Nc1cc(-n2ncc3cc(C#N)cnc32)ncc1C(=O)N[C@@H]1CCCN(S(C)(=O)=O)C1 [Example 245] | 15.7 nM |  | 233 nM | 
35 | CC(C)(O)[C@H](F)CNC(=O)c1cnc(N2CCc3cc(C#N)cnc32)cc1NC1CC1 [Example 616] |  | 10.9 nM |  | EC50 [1, 3]: 305 nM; IC50 [1, 3]: 425 nM
36 | CC(CF)Nc1cc(-n2ccc3cc(C#N)cnc32)ncc1C(=O)NC[C@@H](F)C(C)(C)O (stereo partly drawn) [Example 78, 6-(5-cyano-1H-pyrrolo[2,3-b]pyridin-1-yl)-N—((R)-2-fluoro-3-hydroxy-3-methylbutyl)-4-((1-fluoropropan-2-yl)amino)nicotinamide] | 2.9 nM |  |  | IC50 [1, 2]: 63 nM
37 | CNC(=O)[C@H]1CC[C@H](NC(=O)c2cnc(-n3ccc4cc(C#N)cnc43)cc2NCC(C)(C)O)CC1 [Example 93, 6-(5-cyano-1H-pyrrolo[2,3-b]pyridin-1-yl)-4-((2-hydroxy-2-methylpropyl)amino)-N-((trans)-4-(methylcarbamoyl)cyclohexyl) nicotinamide] | 8.4 nM |  |  | EC50 [1, 4]: 562 nM
38 | CC(C)Nc1cc(-n2ncc3cc(C#N)cnc32)ncc1C(=O)NCC(F)(F)C(C)(C)O [Example 167, 6-(5-Cyano-1H-pyrazolo[3,4-b]pyridin-1-yl)-N-(2,2-difluoro-3-hydroxy-3-methylbutyl)-4-(isopropylamino)nicotinamide] | 10.5 nM |  | 171 nM | 
